In patent publication US6362369B1, “Phthalic acid diamide derivatives fluorine-containing aniline compounds as starting material, agricultural and horticultural insecticides, and a method for application of the insecticides” (Nihon Nohyaku Co., Ltd., priority 1997, dated 2002):

Assays:
Format in all cases: in vivo
[1] = system: common cutworm (Spodoptera Litura); test: Insecticidal effect on common cutworm (Test Example 2); conditions: 500 ppm, 25° C.; for Insecticidal effect, Test Example 2: cabbage leaf immersed; for Insecticidal effect, Test Example 2 / Insecticidal effect on common cutworm (Test Example 2), judged grade: eight days after inoculation; for Insecticidal effect (Test Example 2), judged from mortality / Insecticidal effect on common cutworm (Test Example 2), judged grade: cabbage leaf dip; for Insecticidal effect (Test Example 2), judged from mortality: 8 days after inoculation; for Insecticidal effect on common cutworm (Test Example 2), judged grade: second-instar larvae
Method in brief: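 After the treated material air-dries, it goes into a dish, second-instar larvae are added, and the dish is closed. Incubation runs at 25° C. On day eight, dead and living larvae are scored, and the calculated mortality is rated on an effect scale.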

[2] = system: diamondback moth (Plutella xylostella); test: Insecticidal effect on diamondback moth (Test Example 1); conditions: for Insecticidal effect, Test Example 1 / Insecticidal effect (Test Example 1), judged from mortality: diamondback moth; for Insecticidal effect (Test Example 1), judged from mortality: judged by the criterion of Test Example 1; for Insecticidal effect on diamondback moth (Test Example 1), judged grade: mortality judged according to the criterion shown in Test Example 1
Method in brief: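 Triplicate groups of 10 insects: eggs laid on Chinese cabbage seedling by adults, seedling immersed then air-dried, kept at 25° C. Day-6 hatch counts gave mortality, rated by criterion.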

[3] = system: rice leafroller (Cnaphalocrocis medinalis); test: Insecticidal effect on rice leafroller (Test Example 3); conditions: 500 ppm, 25° C., humidity 70%; for Insecticidal effect, Test Example 3: rice lamina immersed; for Insecticidal effect, Test Example 3 / Insecticidal effect on rice leafroller (Test Example 3), judged grade: four days after inoculation; for Insecticidal effect (Test Example 3), judged from mortality / Insecticidal effect on rice leafroller (Test Example 3), judged grade: rice lamina dip; for Insecticidal effect (Test Example 3), judged from mortality: 4 days after inoculation; for Insecticidal effect on rice leafroller (Test Example 3), judged grade: third-instar larvae
Method in brief: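 Insecticidal effect is judged by a predefined criterion from dead/alive counts four days after infesting air-dried lamina with third-instar larvae, kept on moistened filter paper at 25° C, 70% humidity.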

[4] = common cutworm second-instar larvae
[5] = mortality judged by criterion of Test Example 1
[6] = rice leafroller third-instar larvae
[7] = second-instar larvae of common cutworm
[8] = third-instar larvae of rice leafroller
[9] = judged by the mortality criterion of Test Example 1

SMILES: Cc1cc(OC(F)(F)C(F)F)ccc1NC(=O)c1ccccc1C(=O)NC(C)(C)C [compound 1060]
- Insecticidal effect, Test Example 2 [1, 4]: A (100)
- Insecticidal effect, Test Example 1 [2, 5]: A (100)
- Insecticidal effect, Test Example 3 [3, 6]: A (100)

SMILES: CCc1cc(C(F)(F)C(F)(F)F)ccc1NC(=O)c1cccc(I)c1C(=O)N(CC)CC [compound 1559]
- Insecticidal effect (Test Example 2), judged from mortality [1, 7]: A (100)
- Insecticidal effect (Test Example 1), judged from mortality [2]: A (100)
- Insecticidal effect (Test Example 3), judged from mortality [3, 8]: A (100)

SMILES: Cc1ccccc1NC(=O)c1ccc(Cl)cc1C(=O)NC(C)C [compound 170]
- Insecticidal effect, Test Example 2 [1, 7]: D (79-50)
- Insecticidal effect, Test Example 1 [2, 9]: A (100)
- Insecticidal effect, Test Example 3 [3, 8]: B (99-90)

SMILES: CC(C)NC(=O)c1c(Br)cccc1C(=O)Nc1ccc(OC(F)(F)F)cc1Cl [compound 286]
- Insecticidal effect, Test Example 2 [1, 7]: A (100)
- Insecticidal effect, Test Example 1 [2, 9]: A (100)
- Insecticidal effect, Test Example 3 [3, 8]: A (100)

SMILES: CC(C)NC(=O)c1c(Cl)cccc1C(=O)Nc1ccc(Cl)cc1F [compound 115]
- Insecticidal effect, Test Example 2 [1, 7]: C (89-80)
- Insecticidal effect, Test Example 1 [2, 9]: A (100)
- Insecticidal effect, Test Example 3 [3, 8]: A (100)

SMILES: Cc1cc(OC(F)(F)C(F)(Br)C(F)(F)F)ccc1NC(=O)c1cccc([N+](=O)[O-])c1C(=O)NC(C)C (stereo not drawn) [compound 700]
- Insecticidal effect on common cutworm (Test Example 2), judged grade [1]: A (100)
- Insecticidal effect on diamondback moth (Test Example 1), judged grade [2]: A (100)
- Insecticidal effect on rice leafroller (Test Example 3), judged grade [3]: A (100)

SMILES: Cc1cc(OC(F)(F)C(F)F)ccc1NC(=O)c1cccc(Cl)c1C(=O)NC(C)(C)C [compound 1061]
- Insecticidal effect, Test Example 2 [1, 4]: A (100)
- Insecticidal effect, Test Example 1 [2, 5]: A (100)
- Insecticidal effect, Test Example 3 [3, 6]: A (100)

SMILES: Cc1cc(C(F)(F)C(F)(F)F)c(Cl)cc1NC(=O)c1cccc(I)c1C(=O)NC(C)(C)C [compound 1654]
- Insecticidal effect (Test Example 2), judged from mortality [1, 7]: A (100)
- Insecticidal effect (Test Example 1), judged from mortality [2]: A (100)
- Insecticidal effect (Test Example 3), judged from mortality [3, 8]: A (100)

SMILES: Cc1cc(OC(F)(F)C(F)(F)Br)ccc1NC(=O)c1cccc([N+](=O)[O-])c1C(=O)NC(C)C [compound 698]
- Insecticidal effect on common cutworm (Test Example 2), judged grade [1]: B (99-90)
- Insecticidal effect on diamondback moth (Test Example 1), judged grade [2]: A (100)
- Insecticidal effect on rice leafroller (Test Example 3), judged grade [3]: A (100)

SMILES: Cc1cc(OC(F)(F)Br)ccc1NC(=O)c1ccccc1C(=O)NC(C)(C)C [compound 1049]
- Insecticidal effect, Test Example 2 [1, 4]: A (100)
- Insecticidal effect, Test Example 1 [2, 5]: A (100)
- Insecticidal effect, Test Example 3 [3, 6]: A (100)

SMILES: Cc1cc(C(F)(F)C(F)(F)F)ccc1NC(=O)c1cccc(Cl)c1C(=O)NC(C)(C)c1ccc(Cl)cc1 [compound 1484]
- Insecticidal effect (Test Example 2), judged from mortality [1, 7]: A (100)
- Insecticidal effect (Test Example 1), judged from mortality [2]: A (100)
- Insecticidal effect (Test Example 3), judged from mortality [3, 8]: A (100)

SMILES: Cc1cc(Oc2cccc(C(F)(F)F)c2)ccc1NC(=O)c1c(Br)cccc1C(=O)NC(C)C [compound 334]
- Insecticidal effect, Test Example 2 [1, 7]: C (89-80)
- Insecticidal effect, Test Example 1 [2, 9]: A (100)
- Insecticidal effect, Test Example 3 [3, 8]: C (89-80)

SMILES: CCCN(CCC)C(=O)c1c(I)cccc1C(=O)Nc1ccc(C(F)(F)C(F)(F)F)cc1C [compound 1044]
- Insecticidal effect, Test Example 2 [1, 4]: A (100)
- Insecticidal effect, Test Example 1 [2, 5]: A (100)
- Insecticidal effect, Test Example 3 [3, 6]: A (100)

SMILES: CC(C)NC(=O)c1c(Cl)cccc1C(=O)Nc1ccc(Oc2ccc(C(F)(F)F)cc2Cl)cc1F [compound 903]
- Insecticidal effect on common cutworm (Test Example 2), judged grade [1]: A (100)
- Insecticidal effect on diamondback moth (Test Example 1), judged grade [2]: A (100)
- Insecticidal effect on rice leafroller (Test Example 3), judged grade [3]: A (100)

SMILES: Cc1c(F)cccc1NC(=O)c1c(F)cccc1C(=O)NC(C)C [compound 548]
- Insecticidal effect on common cutworm (Test Example 2), judged grade [1]: A (100)
- Insecticidal effect on diamondback moth (Test Example 1), judged grade [2]: A (100)
- Insecticidal effect on rice leafroller (Test Example 3), judged grade [3]: A (100)

SMILES: Cc1cc(OC(F)F)ccc1NC(=O)c1cccc(F)c1C(=O)NC(C)C [compound 500]
- Insecticidal effect on common cutworm (Test Example 2), judged grade [1]: B (99-90)
- Insecticidal effect on diamondback moth (Test Example 1), judged grade [2]: A (100)
- Insecticidal effect on rice leafroller (Test Example 3), judged grade [3]: A (100)

SMILES: CC(C)NC(=O)c1c(I)cccc1C(=O)Nc1ccc2c(c1)OC(F)C(F)(F)O2 (stereo not drawn) [compound 1148]
- Insecticidal effect, Test Example 2 [1, 4]: A (100)
- Insecticidal effect, Test Example 1 [2, 5]: A (100)
- Insecticidal effect, Test Example 3 [3, 6]: A (100)

SMILES: COc1ccc(NC(=O)c2cccc([N+](=O)[O-])c2C(=O)NC(C)C)c(C)c1C [compound 689]
- Insecticidal effect on common cutworm (Test Example 2), judged grade [1]: D (79-50)
- Insecticidal effect on diamondback moth (Test Example 1), judged grade [2]: A (100)
- Insecticidal effect on rice leafroller (Test Example 3), judged grade [3]: A (100)

SMILES: Cc1cc(OCC(F)(F)C(F)F)ccc1NC(=O)c1cccc([N+](=O)[O-])c1C(=O)NC(C)C [compound 699]
- Insecticidal effect on common cutworm (Test Example 2), judged grade [1]: A (100)
- Insecticidal effect on diamondback moth (Test Example 1), judged grade [2]: A (100)
- Insecticidal effect on rice leafroller (Test Example 3), judged grade [3]: D (79-50)

SMILES: CC(C)NC(=O)c1c(I)cccc1C(=O)Nc1ccc(SCC(F)(F)F)cc1 [compound 355]
- Insecticidal effect, Test Example 2 [1, 7]: C (89-80)
- Insecticidal effect, Test Example 1 [2, 9]: A (100)
- Insecticidal effect, Test Example 3 [3, 8]: A (100)

SMILES: CCNC(=O)c1c(I)cccc1C(=O)Nc1ccc(C(F)(C(F)(F)F)C(F)(F)F)cc1C [compound 1073]
- Insecticidal effect, Test Example 2 [1, 4]: A (100)
- Insecticidal effect, Test Example 1 [2, 5]: A (100)
- Insecticidal effect, Test Example 3 [3, 6]: A (100)

SMILES: CC(C)NC(=O)c1c(Cl)cccc1C(=O)Nc1ccc(F)cc1F [compound 113]
- Insecticidal effect, Test Example 2 [1, 7]: B (99-90)
- Insecticidal effect, Test Example 1 [2, 9]: A (100)
- Insecticidal effect, Test Example 3 [3, 8]: A (100)

SMILES: CC(C)NC(=O)c1c(I)cccc1C(=O)Nc1ccc([S+]([O-])C(F)(F)F)cc1 (stereo not drawn) [compound 1002]
- Insecticidal effect, Test Example 2 [1, 4]: A (100)
- Insecticidal effect, Test Example 1 [2, 5]: A (100)
- Insecticidal effect, Test Example 3 [3, 6]: A (100)

SMILES: CCN(CC)C(=O)c1c(C(=O)Nc2ccc(C(F)(F)C(F)(F)F)cc2C)cccc1[N+](=O)[O-] [compound 1550]
- Insecticidal effect (Test Example 2), judged from mortality [1, 7]: A (100)
- Insecticidal effect (Test Example 1), judged from mortality [2]: A (100)
- Insecticidal effect (Test Example 3), judged from mortality [3, 8]: A (100)

SMILES: Cc1cc(SC(F)(F)C(F)(F)F)ccc1NC(=O)c1cccc(I)c1C(=O)NC(C)C [compound 909]
- Insecticidal effect on common cutworm (Test Example 2), judged grade [1]: A (100)
- Insecticidal effect on diamondback moth (Test Example 1), judged grade [2]: A (100)
- Insecticidal effect on rice leafroller (Test Example 3), judged grade [3]: A (100)

SMILES: CC(C)NC(=O)c1c(I)cccc1C(=O)Nc1ccc(OC(F)(F)F)cc1Br [compound 406]
- Insecticidal effect, Test Example 2 [1, 7]: A (100)
- Insecticidal effect, Test Example 1 [2, 9]: A (100)
- Insecticidal effect, Test Example 3 [3, 8]: A (100)

SMILES: CC(C)NC(=O)c1c(Cl)cccc1C(=O)Nc1ccc2c(c1Cl)OC(F)(F)C(F)(F)O2 [compound 1642]
- Insecticidal effect (Test Example 2), judged from mortality [1, 7]: A (100)
- Insecticidal effect (Test Example 1), judged from mortality [2]: A (100)
- Insecticidal effect (Test Example 3), judged from mortality [3, 8]: A (100)

SMILES: Cc1cc(Cl)ccc1NC(=O)c1ccccc1C(=O)NC(C)(C)C [compound 927]
- Insecticidal effect on common cutworm (Test Example 2), judged grade [1]: A (100)
- Insecticidal effect on diamondback moth (Test Example 1), judged grade [2]: A (100)
- Insecticidal effect on rice leafroller (Test Example 3), judged grade [3]: A (100)

SMILES: CC(C)NC(=O)c1c(Cl)cccc1C(=O)Nc1ccc(C(F)(F)C(F)(F)C(F)(F)C(F)(F)F)cc1 [compound 91]
- Insecticidal effect, Test Example 2 [1, 7]: A (100)
- Insecticidal effect, Test Example 1 [2, 9]: A (100)
- Insecticidal effect, Test Example 3 [3, 8]: A (100)

SMILES: CC(C)NC(=O)c1c(Cl)cccc1C(=O)Nc1ccc(C(F)(F)C(F)(F)C(F)(F)F)cc1 [compound 90]
- Insecticidal effect, Test Example 2 [1, 7]: A (100)
- Insecticidal effect, Test Example 1 [2, 9]: A (100)
- Insecticidal effect, Test Example 3 [3, 8]: B (99-90)

SMILES: CC(C)NC(=O)c1c(I)cccc1C(=O)Nc1ccc(C(F)(C(F)(F)F)C(F)(F)F)cc1 [compound 351]
- Insecticidal effect, Test Example 2 [1, 7]: A (100)
- Insecticidal effect, Test Example 1 [2, 9]: A (100)
- Insecticidal effect, Test Example 3 [3, 8]: A (100)

SMILES: Cc1cc(C(F)(C(F)(F)F)C(F)(F)F)ccc1NC(=O)c1cccc(C(F)(F)F)c1C(=O)NC(C)(C)C [compound 1232]
- Insecticidal effect, Test Example 2 [1, 4]: A (100)
- Insecticidal effect, Test Example 1 [2, 5]: A (100)
- Insecticidal effect, Test Example 3 [3, 6]: A (100)

SMILES: Cc1cc(Br)ccc1NC(=O)c1ccccc1C(=O)NC(C)C [compound 52]
- Insecticidal effect, Test Example 2 [1, 7]: A (100)
- Insecticidal effect, Test Example 1 [2, 9]: A (100)
- Insecticidal effect, Test Example 3 [3, 8]: A (100)

SMILES: CC(C)NC(=O)c1c(F)cccc1C(=O)Nc1ccc(OC(F)(F)F)cc1Br [compound 509]
- Insecticidal effect on common cutworm (Test Example 2), judged grade [1]: A (100)
- Insecticidal effect on diamondback moth (Test Example 1), judged grade [2]: A (100)
- Insecticidal effect on rice leafroller (Test Example 3), judged grade [3]: A (100)

SMILES: COc1cc(C(F)(C(F)(F)F)C(F)(F)F)ccc1NC(=O)c1cccc(I)c1C(=O)NC(C)C [compound 1715]
- Insecticidal effect (Test Example 2), judged from mortality [1, 7]: A (100)
- Insecticidal effect (Test Example 1), judged from mortality [2]: A (100)
- Insecticidal effect (Test Example 3), judged from mortality [3, 8]: A (100)
